Data taken from patent US9340590B2 (priority 2011, dated 2016).
Positions of bridges follow the written chain, without caps; N, C: chain ends. Non-standard residues stand in square brackets, D forms with d. Residues, ends and D or L forms follow the SMILES beside them. Trp(1-Me) = Cn1cc(C[C@H](N)C(=O)O)c2ccccc21

Assays:
hNav1.5 = hNav1.5 (Homo sapiens, UniProt Q14524); assay: cell-based
hNav1.7 = hNav1.7 (Homo sapiens, UniProt Q15858); assay: cell-based; conditions: Nav1.7 Use IC50
Chain of hNav1.7 (Q15858 whole entry, looked up): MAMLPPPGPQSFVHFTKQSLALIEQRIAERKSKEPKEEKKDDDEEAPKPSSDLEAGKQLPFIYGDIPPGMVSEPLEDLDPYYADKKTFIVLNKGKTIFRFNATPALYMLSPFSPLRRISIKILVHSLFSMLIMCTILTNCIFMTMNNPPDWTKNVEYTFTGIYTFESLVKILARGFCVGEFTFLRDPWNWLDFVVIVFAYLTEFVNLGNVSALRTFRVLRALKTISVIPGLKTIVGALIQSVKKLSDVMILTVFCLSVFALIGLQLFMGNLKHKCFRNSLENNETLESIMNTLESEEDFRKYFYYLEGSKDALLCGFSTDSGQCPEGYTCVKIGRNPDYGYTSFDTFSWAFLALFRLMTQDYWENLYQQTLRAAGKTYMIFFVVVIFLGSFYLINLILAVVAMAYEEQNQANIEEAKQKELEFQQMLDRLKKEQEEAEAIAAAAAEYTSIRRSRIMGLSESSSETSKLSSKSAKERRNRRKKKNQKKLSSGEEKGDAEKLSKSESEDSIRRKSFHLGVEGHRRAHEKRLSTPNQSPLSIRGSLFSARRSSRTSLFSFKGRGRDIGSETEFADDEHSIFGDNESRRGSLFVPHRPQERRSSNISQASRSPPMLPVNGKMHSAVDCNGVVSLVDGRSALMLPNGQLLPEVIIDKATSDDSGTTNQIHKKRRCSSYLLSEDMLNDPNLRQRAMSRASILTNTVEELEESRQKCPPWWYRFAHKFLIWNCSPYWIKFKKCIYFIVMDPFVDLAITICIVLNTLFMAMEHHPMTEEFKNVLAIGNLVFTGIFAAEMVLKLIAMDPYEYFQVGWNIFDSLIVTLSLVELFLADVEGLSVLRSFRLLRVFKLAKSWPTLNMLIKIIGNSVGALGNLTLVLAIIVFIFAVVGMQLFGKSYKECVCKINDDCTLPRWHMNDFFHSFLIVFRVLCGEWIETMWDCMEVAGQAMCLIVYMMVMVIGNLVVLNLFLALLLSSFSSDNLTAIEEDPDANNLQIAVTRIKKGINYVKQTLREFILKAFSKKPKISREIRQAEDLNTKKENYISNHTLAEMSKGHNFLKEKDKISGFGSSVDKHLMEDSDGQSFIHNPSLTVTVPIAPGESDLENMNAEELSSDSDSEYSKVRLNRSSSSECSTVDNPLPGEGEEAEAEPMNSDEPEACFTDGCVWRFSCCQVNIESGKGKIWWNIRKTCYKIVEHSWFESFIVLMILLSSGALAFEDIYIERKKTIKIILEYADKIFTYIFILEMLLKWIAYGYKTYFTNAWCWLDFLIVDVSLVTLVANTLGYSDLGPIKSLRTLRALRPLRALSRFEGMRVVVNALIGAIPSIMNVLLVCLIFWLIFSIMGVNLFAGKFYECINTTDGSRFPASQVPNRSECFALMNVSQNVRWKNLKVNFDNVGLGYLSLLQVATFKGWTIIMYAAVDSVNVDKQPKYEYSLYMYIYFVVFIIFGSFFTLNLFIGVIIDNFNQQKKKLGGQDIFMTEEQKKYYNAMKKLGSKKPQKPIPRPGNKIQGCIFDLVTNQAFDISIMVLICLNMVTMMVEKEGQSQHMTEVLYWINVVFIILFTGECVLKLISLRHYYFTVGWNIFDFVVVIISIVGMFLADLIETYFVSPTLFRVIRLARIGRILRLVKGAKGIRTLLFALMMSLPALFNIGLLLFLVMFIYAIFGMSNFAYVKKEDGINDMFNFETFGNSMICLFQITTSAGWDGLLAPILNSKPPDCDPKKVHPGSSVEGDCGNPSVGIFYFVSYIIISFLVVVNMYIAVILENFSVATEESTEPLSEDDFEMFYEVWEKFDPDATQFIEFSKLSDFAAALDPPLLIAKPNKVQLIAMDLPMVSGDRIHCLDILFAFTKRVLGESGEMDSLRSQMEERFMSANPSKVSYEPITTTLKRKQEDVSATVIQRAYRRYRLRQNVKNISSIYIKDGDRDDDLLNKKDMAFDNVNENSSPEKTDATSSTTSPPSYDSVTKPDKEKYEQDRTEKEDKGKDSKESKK

Chain of hNav1.5 (Q14524 whole entry, looked up): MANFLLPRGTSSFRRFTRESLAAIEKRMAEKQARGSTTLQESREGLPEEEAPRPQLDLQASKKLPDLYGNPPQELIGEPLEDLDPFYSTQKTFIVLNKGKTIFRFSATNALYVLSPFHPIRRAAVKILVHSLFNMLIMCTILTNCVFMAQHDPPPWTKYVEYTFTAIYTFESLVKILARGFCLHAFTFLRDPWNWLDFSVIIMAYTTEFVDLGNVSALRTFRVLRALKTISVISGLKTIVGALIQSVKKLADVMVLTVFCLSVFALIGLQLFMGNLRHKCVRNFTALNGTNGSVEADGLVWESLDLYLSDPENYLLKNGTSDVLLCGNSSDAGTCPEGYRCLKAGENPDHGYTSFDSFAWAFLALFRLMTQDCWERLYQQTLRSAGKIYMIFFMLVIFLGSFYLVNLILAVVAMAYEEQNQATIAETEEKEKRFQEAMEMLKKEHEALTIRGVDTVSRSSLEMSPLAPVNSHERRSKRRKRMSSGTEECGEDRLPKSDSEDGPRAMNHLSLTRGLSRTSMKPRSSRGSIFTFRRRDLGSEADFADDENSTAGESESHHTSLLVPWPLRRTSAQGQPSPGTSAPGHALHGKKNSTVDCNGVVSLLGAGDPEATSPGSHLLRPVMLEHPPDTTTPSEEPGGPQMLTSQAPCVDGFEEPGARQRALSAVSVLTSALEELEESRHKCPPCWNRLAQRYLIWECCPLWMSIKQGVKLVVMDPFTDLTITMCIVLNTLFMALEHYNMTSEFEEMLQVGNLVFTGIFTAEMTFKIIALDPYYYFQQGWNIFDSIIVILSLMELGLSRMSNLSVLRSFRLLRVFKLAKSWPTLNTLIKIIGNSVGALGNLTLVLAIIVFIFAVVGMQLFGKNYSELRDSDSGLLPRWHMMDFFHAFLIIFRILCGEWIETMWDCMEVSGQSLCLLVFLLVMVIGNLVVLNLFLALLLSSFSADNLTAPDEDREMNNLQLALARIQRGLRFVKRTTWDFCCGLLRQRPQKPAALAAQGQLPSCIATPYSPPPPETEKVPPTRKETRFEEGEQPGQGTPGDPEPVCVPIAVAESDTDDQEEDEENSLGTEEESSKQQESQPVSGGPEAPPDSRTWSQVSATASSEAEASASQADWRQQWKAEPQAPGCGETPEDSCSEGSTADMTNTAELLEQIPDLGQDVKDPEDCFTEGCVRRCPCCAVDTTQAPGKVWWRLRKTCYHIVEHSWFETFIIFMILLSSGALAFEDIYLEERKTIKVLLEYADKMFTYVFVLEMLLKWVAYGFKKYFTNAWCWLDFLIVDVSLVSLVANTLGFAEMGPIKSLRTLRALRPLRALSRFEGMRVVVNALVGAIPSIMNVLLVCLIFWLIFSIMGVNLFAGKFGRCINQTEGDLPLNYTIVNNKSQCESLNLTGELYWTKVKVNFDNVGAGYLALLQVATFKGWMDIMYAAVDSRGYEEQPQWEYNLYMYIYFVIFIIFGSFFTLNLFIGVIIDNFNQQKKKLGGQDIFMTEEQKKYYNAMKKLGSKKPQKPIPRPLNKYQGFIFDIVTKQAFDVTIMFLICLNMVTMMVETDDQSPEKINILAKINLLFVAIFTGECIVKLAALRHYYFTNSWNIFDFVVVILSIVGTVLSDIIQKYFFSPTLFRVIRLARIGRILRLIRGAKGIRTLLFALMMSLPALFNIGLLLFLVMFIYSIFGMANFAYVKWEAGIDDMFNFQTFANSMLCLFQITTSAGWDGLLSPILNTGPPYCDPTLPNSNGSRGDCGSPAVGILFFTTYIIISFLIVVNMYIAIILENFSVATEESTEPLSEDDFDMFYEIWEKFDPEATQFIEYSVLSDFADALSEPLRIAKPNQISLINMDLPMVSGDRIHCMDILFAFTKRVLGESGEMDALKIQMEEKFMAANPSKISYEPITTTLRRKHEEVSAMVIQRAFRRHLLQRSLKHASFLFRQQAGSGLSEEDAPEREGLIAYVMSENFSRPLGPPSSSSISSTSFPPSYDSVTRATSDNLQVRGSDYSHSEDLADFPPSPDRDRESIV

SMILES	IC50 (hNav1.5) [µM]	IC50 (hNav1.7) [µM]
CC[C@H](C)[C@@H]1NC(=O)[C@@H]2CSSC[C@@H]3NC(=O)[C@H](C(C)C)NC(=O)[C@H](CC(C)C)NC(=O)[C@H](CC(N)=O)NC(=O)[C@@H]4CCCN4C(=O)[C@H](CCCCN)NC(=O)[C@H](CSSC[C@H](NC(=O)[C@@H](N)CC(=O)O)C(=O)N[C@@H](CC(C)C)C(=O)NCC(=O)N[C@@H](Cc4ccccc4)C(=O)N[C@@H](CCSC)C(=O)N[C@@H](CCCNC(=N)N)C(=O)N[C@@H](CCCCN)C(=O)N2)NC(=O)[C@H](CSSC[C@@H](C(=O)N[C@@H](CCCCN)C(=O)N[C@@H](Cc2ccc(O)cc2)C(=O)N[C@H](C(=O)N[C@@H](Cc2ccccc2)C(N)=O)C(C)C)NC(=O)[C@H](Cc2c[nH]c4ccccc24)NC(=O)[C@H](CCCCN)NC(=O)[C@H](Cc2cnc[nH]2)NC(=O)[C@H]([C@@H](C)O)NC(=O)[C@H](CCCNC(=N)N)NC(=O)[C@H](CO)NC3=O)NC(=O)[C@H](CCCCN)NC(=O)[C@H](CC(=O)O)NC(=O)[C@H](CC(N)=O)NC(=O)[C@H](CC(=O)O)NC(=O)[C@@H]2CCCN2C1=O [[Lys18]GpTx-1(1-34)] (H-DCLGFMRKCIPDNDKCCKPNLVCSRTHKWCKYVF-NH2; disulfide 2-17, 9-23, 16-30)	16.4	0.002
CC[C@H](C)[C@@H]1NC(=O)[C@@H]2CSSC[C@@H]3NC(=O)[C@H](C(C)C)NC(=O)[C@H](CC(C)C)NC(=O)[C@H](CC(N)=O)NC(=O)[C@H](CCCCN)NC(=O)[C@H](CCCNC(=N)N)NC(=O)[C@H](CSSC[C@H](NC(=O)[C@@H](N)CC(=O)O)C(=O)N[C@@H](CC(C)C)C(=O)NCC(=O)N[C@@H](Cc4ccccc4)C(=O)N[C@@H](CCSC)C(=O)N[C@@H](CCCNC(=N)N)C(=O)N[C@@H](CCCCN)C(=O)N2)NC(=O)[C@H](CSSC[C@@H](C(=O)N[C@@H](CCCCN)C(=O)N[C@@H](Cc2ccc(O)cc2)C(=O)N[C@H](C(=O)N[C@@H](Cc2ccccc2)C(N)=O)C(C)C)NC(=O)[C@H](Cc2c[nH]c4ccccc24)NC(=O)[C@H](CCCCN)NC(=O)[C@H](Cc2cnc[nH]2)NC(=O)[C@H]([C@@H](C)O)NC(=O)[C@H](CCCNC(=N)N)NC(=O)[C@H](CO)NC3=O)NC(=O)[C@H](CCCCN)NC(=O)[C@H](CC(=O)O)NC(=O)[C@H](CC(N)=O)NC(=O)[C@H](CC(=O)O)NC(=O)[C@@H]2CCCN2C1=O [[Lys19]GpTx-1(1-34)] (H-DCLGFMRKCIPDNDKCCRKNLVCSRTHKWCKYVF-NH2; disulfide 2-17, 9-23, 16-30)	9.1	0.003
CC[C@H](C)[C@@H]1NC(=O)[C@@H]2CSSC[C@@H]3NC(=O)[C@H](C(C)C)NC(=O)[C@H](CC(C)C)NC(=O)[C@H](CC(N)=O)NC(=O)[C@@H]4CCCN4C(=O)[C@H](CCCNC(=N)N)NC(=O)[C@H](CSSC[C@H](NC(=O)[C@@H](N)CC(=O)O)C(=O)N[C@@H](CC(C)C)C(=O)NCC(=O)N[C@@H](CCSC)C(=O)N[C@@H](CCSC)C(=O)N[C@@H](CCCNC(=N)N)C(=O)N[C@@H](CCCCN)C(=O)N2)NC(=O)[C@H](CSSC[C@@H](C(=O)N[C@@H](CCCCN)C(=O)N[C@@H](Cc2cn(C)c4ccccc24)C(=O)N[C@H](C(=O)N[C@@H](Cc2ccccc2)C(N)=O)C(C)C)NC(=O)[C@H](Cc2c[nH]c4ccccc24)NC(=O)[C@H](CCCCN)NC(=O)[C@H](Cc2c[nH]cn2)NC(=O)[C@H]([C@@H](C)O)NC(=O)[C@H](CCCNC(=N)N)NC(=O)[C@H](CO)NC3=O)NC(=O)[C@H](CCCCN)NC(=O)[C@H](CC(=O)O)NC(=O)[C@H](CC(N)=O)NC(=O)[C@H](CC(=O)O)NC(=O)[C@@H]2CCCN2C1=O [[Met5;1′NMeW32]GpTx-1(1-34)] (H-DCLGMMRKCIPDNDKCCRPNLVCSRTHKWCK[Trp(1-Me)]VF-NH2; disulfide 2-17, 9-23, 16-30)	14.8	0.007
